Test results published in PMC8482274, “Inadequate Cerebrospinal Fluid Concentrations of Available Salvage Agents Further Impedes the Optimal Treatment of Multidrug-Resistant Enterococcus faecium Meningitis and Bacteremia” (Infectious Disease Reports, 2021).
In brackets after ≈: the same amount, converted by molar mass. Like-named read-outs stand apart in the source and are kept apart here.

Columns and labels:
[1] = system: VREf isolates; assay: microbe, parasite or virus in culture
Method: (§1) Initial organism identification and susceptibility determination were performed via MALDI-TOF MS (Bruker Daltonics, Billerica, MA, USA) and MicroScan Walkaway (Beckman Coulter, Brea, CA), respectively, in the clinical microbiology laboratory. Pure colonies of the VREf isolates cultured from the CSF on hospital days 33 and 57 and from blood on days 35 and 52 were sub-cultured to BD BBL chocolate II agar slants (Becton, Dickinson and Company, Sparks, MD, USA) and shipped immediately overnight to the research laboratory where all subsequent testing was performed. Identification and resistance marker detection was confirmed via the Verigene Gram-positive blood culture assay (Luminex, Northbrook, IL, USA).
Minimum inhibitory concentrations were determined in triplicate according to CLSI guidelines. Modal MIC values are reported.

[2] = system: VREf; assay: microbe, parasite or virus in culture; type: cell-based, Enterococcus faecium; details: for local laboratory susceptibility result: VREf blood isolate of hospital day 22
Method: as §1

[3] = human, in vivo; cited from earlier work
[4] = Enterococcus faecium, VREf isolate from CSF, hospital day 33, modal MIC of triplicate, CLSI guidelines
[5] = Enterococcus faecium, VREf isolate from CSF, hospital day 57, modal MIC of triplicate, CLSI guidelines
[6] = Enterococcus faecium, VREf isolate from blood, hospital day 35, modal MIC of triplicate, CLSI guidelines
[7] = Enterococcus faecium, VREf isolate from blood, hospital day 52, modal MIC of triplicate, CLSI guidelines
[8] = VREf isolate from CSF, hospital day 33, CLSI M100-S30 unless footnoted (b: CLSI vancomycin-susceptible E. faecalis; c: FDA E. faecalis; d: EUCAST v.10.0 E. faecium)
[9] = VREf isolate from CSF, hospital day 57, CLSI M100-S30 unless footnoted
[10] = VREf isolate from blood, hospital day 35, CLSI M100-S30 unless footnoted
[11] = VREf isolate from blood, hospital day 52, CLSI M100-S30 unless footnoted
[12] = VREf blood isolate returning after 11 days of daptomycin therapy
[13] = VREf isolate from CSF, hospital day 33, modal MIC of triplicate, CLSI guidelines
[14] = VREf isolate from CSF, hospital day 57, modal MIC of triplicate, CLSI guidelines
[15] = VREf isolate from blood, hospital day 35, modal MIC of triplicate, CLSI guidelines
[16] = VREf isolate from blood, hospital day 52, modal MIC of triplicate, CLSI guidelines

Row | Structure (SMILES) | MIC [1, 4] | MIC [1, 5] | MIC [1, 6] | MIC [1, 7] | MIC [1] | MIC ([2]; Enterococcus faecium, VREf blood isolate returning after 11 days of daptomycin therapy, daptomycin by broth microdilution) | Interpretive Category [1, 8] | Interpretive Category [1, 9] | Interpretive Category [1, 10] | Interpretive Category [1, 11] | local laboratory susceptibility result [2] | susceptibility category [2, 12] | susceptibility category ([2]; first episode of VREf bacteremia, 2.5 months before admission) | CSF penetration [3] | MIC [1, 13] | MIC [1, 14] | MIC [1, 15] | MIC [1, 16]
1 | CCO/N=C(\C(=O)N[C@@H]1C(=O)N2C(C(=O)[O-])=C(Sc3nc(-c4cc[n+](C)cc4)cs3)CS[C@H]12)c1nsc(N)n1 [Ceftaroline] | ≥ 128 µg/mL | ≥ 128 µg/mL | ≥ 128 µg/mL | ≥ 128 µg/mL | – | – | – | – | – | – | – | – | – | – | – | – | – | –
2 | CO/N=C(\C(=O)N[C@@H]1C(=O)N2C(C(=O)O)=C(CSc3nc(=O)c(=O)[nH]n3C)CS[C@H]12)c1csc(N)n1 [Ceftriaxone] | ≥ 128 µg/mL | ≥ 128 µg/mL | ≥ 128 µg/mL | ≥ 128 µg/mL | – | – | – | – | – | – | – | – | – | – | – | – | – | –
3 | O=C(N[C@H](CO)[C@H](O)c1ccc([N+](=O)[O-])cc1)C(Cl)Cl [Chloramphenicol] | ≥ 32 µg/mL | ≥ 32 µg/mL | ≥ 32 µg/mL | ≥ 32 µg/mL | – | – | R | R | R | R | – | – | – | – | – | – | – | –
4 | CN[C@H]1C(=O)N[C@@H]2Cc3ccc(cc3)Oc3cc4cc(c3O[C@@H]3O[C@H](C(=O)O)[C@@H](O)[C@H](O)[C@H]3NC(=O)CCCCCCCCC(C)C)Oc3ccc(cc3Cl)[C@@H](O)[C@@H]3NC(=O)[C@H](NC(=O)[C@@H]4NC(=O)[C@@H](NC2=O)c2cc(cc(O)c2Cl)Oc2cc1ccc2O)c1ccc(O)c(c1)-c1c(O[C@H]2O[C@H](CO)[C@@H](O)[C@H](O)[C@@H]2O)cc(O)cc1[C@@H](C(=O)NCCCN(C)C)NC3=O [Dalbavancin] | – | – | – | – | ≥4 µg/mL | – | – | – | – | – | – | – | – | – | – | – | – | –
5 | CCCCCCCCCC(=O)N[C@@H](Cc1c[nH]c2ccccc12)C(=O)N[C@H](CC(N)=O)C(=O)N[C@@H](CC(=O)O)C(=O)N[C@@H]1C(=O)NCC(=O)N[C@@H](CCCN)C(=O)N[C@@H](CC(=O)O)C(=O)N[C@H](C)C(=O)N[C@@H](CC(=O)O)C(=O)NCC(=O)N[C@H](CO)C(=O)N[C@@H]([C@H](C)CC(=O)O)C(=O)N[C@@H](CC(=O)c2ccccc2N)C(=O)O[C@@H]1C [Daptomycin] | – | – | – | – | ≥8 µg/mL | – | R | R | R | R | resistance | resistant | susceptible dose-dependent | – | – | – | – | –
6 | O=C1CN(/N=C/c2ccc([N+](=O)[O-])o2)C(=O)N1 [Nitrofurantoin] | ≥ 128 µg/mL | ≥ 128 µg/mL | ≥ 128 µg/mL | ≥ 128 µg/mL | – | – | R | R | R | R | – | – | – | – | – | – | – | –
7 | CCCCCCCCCCNCCN[C@@]1(C)C[C@H](O[C@H]2[C@H](Oc3c4cc5cc3Oc3ccc(cc3Cl)[C@@H](O)[C@@H](NC(=O)[C@@H](CC(C)C)NC)C(=O)N[C@@H](CC(N)=O)C(=O)N[C@H]5C(=O)N[C@H]3C(=O)N[C@H](C(=O)N[C@H](C(=O)O)c5cc(O)c(CNCP(=O)(O)O)c(O)c5-c5cc3ccc5O)[C@H](O)c3ccc(c(Cl)c3)O4)O[C@H](CO)[C@@H](O)[C@@H]2O)O[C@@H](C)[C@H]1O [Telavancin] | – | – | – | – | – | – | – | – | – | – | – | – | – | – | ≥4 µg/mL | ≥4 µg/mL | ≥4 µg/mL | ≥4 µg/mL
8 | CN(C)[C@@H]1C(O)=C(C(N)=O)C(=O)[C@@]2(O)C(O)=C3C(=O)c4c(O)cccc4[C@@](C)(O)[C@H]3C[C@@H]12 [Tetracycline] | – | – | – | – | – | – | R | R | R | R | – | – | – | – | – | – | – | –
9 | CN[C@H](CC(C)C)C(=O)N[C@H]1C(=O)N[C@@H](CC(N)=O)C(=O)N[C@H]2C(=O)N[C@H]3C(=O)N[C@H](C(=O)N[C@H](C(=O)O)c4cc(O)cc(O)c4-c4cc3ccc4O)[C@H](O)c3ccc(c(Cl)c3)Oc3cc2cc(c3O[C@@H]2O[C@H](CO)[C@@H](O)[C@H](O)[C@H]2O[C@H]2C[C@](C)(N)[C@H](O)[C@H](C)O2)Oc2ccc(cc2Cl)[C@H]1O [Vancomycin] | – | – | – | – | – | – | R | R | R | R | – | – | – | – | ≥256 µg/mL | ≥256 µg/mL | ≥256 µg/mL | ≥256 µg/mL

Second part, led by results:

Row | MIC [1, 4] | MIC [1, 5] | MIC [1, 6] | MIC [1, 7] | MIC [1] | MIC ([2]; Enterococcus faecium, VREf blood isolate returning after 11 days of daptomycin therapy, daptomycin by broth microdilution) | Structure (SMILES) | Interpretive Category [1, 8] | Interpretive Category [1, 9] | Interpretive Category [1, 10] | Interpretive Category [1, 11] | local laboratory susceptibility result [2] | susceptibility category [2, 12] | susceptibility category ([2]; first episode of VREf bacteremia, 2.5 months before admission) | CSF penetration [3] | MIC [1, 13] | MIC [1, 14] | MIC [1, 15] | MIC [1, 16]
10 | ≥ 16 µg/mL | ≥ 16 µg/mL | ≥ 16 µg/mL | ≥ 16 µg/mL | – | – | CC1(C)S[C@@H]2[C@H](NC(=O)[C@H](N)c3ccccc3)C(=O)N2[C@H]1C(=O)O [Ampicillin] | R | R | R | R | – | – | – | – | – | – | – | –
11 | > 8 µg/mL | > 8 µg/mL | > 8 µg/mL | > 8 µg/mL | – | – | Nc1nc(-n2cc(C(=O)O)c(=O)c3cc(F)c(N4CC(O)C4)c(Cl)c32)c(F)cc1F [Delafloxacin] | R | R | R | R | – | – | – | – | – | – | – | –
12 | ≥ 8 µg/mL | ≥ 8 µg/mL | ≥ 8 µg/mL | ≥ 8 µg/mL | – | – | CC[C@H]1OC(=O)[C@H](C)[C@@H](O[C@H]2C[C@@](C)(OC)[C@@H](O)[C@H](C)O2)[C@H](C)[C@@H](O[C@@H]2O[C@H](C)C[C@H](N(C)C)[C@H]2O)[C@](C)(O)C[C@@H](C)C(=O)[C@H](C)[C@@H](O)[C@]1(C)O [Erythromycin] | R | R | R | R | – | – | – | – | – | – | – | –
13 | 64 µg/mL | 64 µg/mL | 64 µg/mL | 64 µg/mL | – | – | C[C@@H]1O[C@@H]1P(=O)(O)O [Fosfomycin] | S | S | S | S | – | – | – | – | – | – | – | –
14 | ≤ 500 µg/mL | ≤ 500 µg/mL | ≤ 500 µg/mL | ≤ 500 µg/mL | – | – | CNC(C)C1CCC(N)C(OC2C(N)CC(N)C(OC3OCC(C)(O)C(NC)C3O)C2O)O1 (stereo not drawn) [Gentamicin] | S | S | S | S | – | – | – | – | – | – | – | –
15 | 1 µg/mL | 2 µg/mL | 1 µg/mL | 2 µg/mL | – | – | C=C[C@]1(C)C[C@@H](OC(=O)CS[C@@H]2CC[C@@H](N)C[C@H]2O)[C@]2(C)[C@H](C)CC[C@]3(CCC(=O)[C@H]32)[C@@H](C)[C@@H]1O [Lefamulin] | – | – | – | – | – | – | – | – | – | – | – | –
16 | ≥ 8 µg/mL | ≥ 8 µg/mL | ≥ 8 µg/mL | ≥ 8 µg/mL | – | – | C[C@H]1COc2c(N3CCN(C)CC3)c(F)cc3c(=O)c(C(=O)O)cn1c23 [Levofloxacin] | R | R | R | R | – | – | – | – | – | – | – | –
17 | 16 µg/mL | 16 µg/mL | 16 µg/mL | 16 µg/mL | – | 2 µg/mL (≈ 5.93 µM) | CC(=O)NC[C@H]1CN(c2ccc(N3CCOCC3)c(F)c2)C(=O)O1 [Linezolid] | R | R | R | R | resistance | susceptible | – | 66–85% | – | – | – | –
18 | 1 µg/mL | 1 µg/mL | 1 µg/mL | 1 µg/mL | – | – | CN(C)c1cc(CNCC(C)(C)C)c(O)c2c1C[C@H]1C[C@H]3[C@H](N(C)C)C(O)=C(C(N)=O)C(=O)[C@@]3(O)C(O)=C1C2=O [Omadacycline] | R | R | R | R | – | – | – | – | – | – | – | –
19 | ≥ 4 µg/mL | ≥ 4 µg/mL | ≥ 4 µg/mL | ≥ 4 µg/mL | – | – | CO[C@H]1/C=C/O[C@@]2(C)Oc3c(C)c(O)c4c(O)c(c(/C=N/N5CCN(C)CC5)c(O)c4c3C2=O)NC(=O)/C(C)=C\C=C\[C@H](C)[C@H](O)[C@@H](C)[C@@H](O)[C@@H](C)[C@H](OC(C)=O)[C@@H]1C [Rifampin] | R | R | R | R | – | – | – | – | – | – | – | –
